This is an account of results in PubChem BioAssay AID2253 (Southern Research Specialized Biocontainment Screening …, 2010).

Each structure is given as a SMILES string.

The subject of the assay is THP-1 viability, CellTiter-Glo luminescence, 72 h. Description: human monocytic cell viability reduction – S. typhimurium screen hits, cytotoxicity control for Salmonella PhoP regulon inhibitors, dose response (AID 2253).
One may read the EC50 as the concentration that produces a half-maximal response. Turning to `Cc1ccc(C(=O)CSC2=C(C#N)C(c3ccco3)CC(=O)N2)c(C)c1` (stereo not given), the concentration giving a half-maximal response (EC50) is 33.7 µM.
For `O=C(CSc1ccccn1)N/N=C/c1cc([N+](=O)[O-])ccc1O`, the concentration giving a half-maximal response (EC50) is 17.1 µM.
For `COc1ccc(C(C[N+](=O)[O-])c2c(-c3ccccc3)cc3ccccn23)cc1` (stereo not given), the EC50 is 12.8 µM.
Then `O=C(Nc1cccc(Cl)c1)C1C2CCC3C(CCC21)C3(Cl)Cl` (stereo not given), with 27.2 µM.
Turning to `CC1CCC(C(C)C)C(OC(=O)Cn2c(COc3ccccc3)[n+](C)c3ccccc32)C1` (stereo not given), the EC50 is 2.6 µM.
Consider `OC(c1cc(C(F)(F)F)nc2c(Cl)cc(Cl)cc12)C1CCCCN1` (stereo not given), for which the EC50 is 12.6 µM.
Turning to `COC(=O)c1c(NC(=O)c2ccc([N+](=O)[O-])o2)sc2c1CCN(C(C)C)C2`, the EC50 is 1.2 µM.
Turning to `COc1cccc(-c2nnc3sc(-c4ccc(C)cc4)nn23)c1`, the EC50 was 44.3 µM.
On to `COc1cnc(-c2ccccn2)[nH]c1=O`, for which the EC50 is 25.6 µM.
On to `Cc1ccc(C[n+]2cc(-c3ccc(Cl)cc3)n3c2CCC3)cc1`, for which the EC50 is 12 µM.
In the case of `Oc1cccc(Nc2nc(NCC3CCCO3)c3ccccc3n2)c1` (stereo not given), the EC50 is 2.26 µM.
Take `COc1ccc(Nc2ccc3c(c2)=NC2(CCCCC2)[N+]=3[O-])cc1`: the EC50 is 4.59 µM.
`COc1cccc(Nc2nc(NCC3CCCO3)c3ccccc3n2)c1` (stereo not given): the EC50 is 2.88 µM.
Turning to `Oc1c(CN2CCN(c3ccc(F)cc3)CC2)cc(Cl)c2cccnc12`, the EC50 was 6.36 µM.
On to `CCCCCCCCCCOC(=O)Cn1c(COc2ccccc2OC)[n+](C)c2ccccc21`, for which the EC50 is 2.2 µM.
Consider `Nc1nonc1-n1nnc(C(=O)N/N=C/c2ccc(Br)cc2)c1CSC1=NCCS1`, for which the EC50 is 23.7 µM.
Consider `COc1ccc(CCNC(=S)Nc2cccc3ccccc23)cc1`, for which the EC50 was 31.5 µM.
For `Cc1ccc2cccnc2c1NC(=S)NC(=O)c1ccccc1`, the EC50 is 25.2 µM.
For the compound `CC(O)CNCCNCc1c(OCc2ccccc2)ccc2ccccc12` (stereo not given), the EC50 is 14.2 µM.
`c1ccc2c(c1)ncn2CCCCOc1ccc2c(c1)CCC2`: the EC50 was 15 µM.
As to `Oc1c(C(c2ccccn2)N2CCOCC2)ccc2cccnc12` (stereo not given), the EC50 was 13.8 µM.
For `NC1=NC[C@@H](Cc2ccc(O)cc2)N1CCCCC1CCCCC1`, the EC50 was 5.45 µM.
For `Cn1c(=N)n(CC(=O)c2ccc(Br)s2)c2ccccc21` the value was 10.1 µM.
Take `O=C(O)CSc1cc(NS(=O)(=O)c2cccc([N+](=O)[O-])c2)c2ccccc2c1O`: the EC50 is 8.07 µM.
Consider `CCN(CC)c1ccc(/C=N/Nc2nc3ccccc3[nH]2)c(O)c1`, for which the EC50 is 2.7 µM.
Then `COC(=O)c1ccc(Nc2cc(C)nc3ccccc23)cc1`, with 6.32 µM.
`O=C(NCCCc1ccccc1)Nc1cccc(Cl)c1`: the EC50 is 37 µM.
Consider `Cc1[nH]c2ccccc2c1C(=O)COC(=O)c1ccc([N+](=O)[O-])s1`, for which the EC50 was 47.5 µM.
Regarding `Cc1ccc(S(=O)(=O)c2c(C(=O)c3ccccc3)cnc3cc4c(cc23)OCCO4)cc1`, the EC50 is 30.2 µM.
Consider `N=c1n(Cc2ccc(Cl)cc2)c2ccccc2n1CC(O)c1ccco1` (stereo not given), for which the EC50 is 11.8 µM.
In the case of `CCOC(=O)COc1ccccc1/C=C\[N+](=O)[O-]`, the EC50 is 2.85 µM.
For `CN(C)CCCN(C(=O)CCc1ccccc1)c1nc2ccc(Cl)cc2s1` the value was 25.9 µM; for `CCCCCCCCCn1c2c(c(=N)c3c1CCC3)CCCC2`, 0.37 µM; for `Cc1ccc(SC(c2ccc(C)cc2)C(Cn2cncn2)C(=O)c2ccccc2)cc1` (stereo not given), 49.8 µM.
In the case of `Cc1ccc(Nc2cc(C)c3c(O)cccc3n2)cc1C`, the EC50 is 15.2 µM.
As to `CN(C)c1ccc(O)c2c1CC1CC3C(N(C)C)C(=O)C(C(N)=O)=C(O)[C@@]3(O)C(=O)C1=C2O` (stereo not given in full), the EC50 was 36.6 µM.
`O=C(Cc1c[nH]c2ccccc12)N/N=C/c1ccccc1O`: the EC50 was 16.2 µM.
As to `CC1(C)CC(=O)C2=C(C1)N(c1ccc(F)cc1)C(N)=C(C#N)C2c1cccs1` (stereo not given), the EC50 is 35.6 µM.
Consider `Cc1c2ccncc2c(C)c2c1[nH]c1ccccc12`, for which the EC50 is 2.53 µM.
As for `NC(N)=NN=C1CCCCCCCCCCC1`, the 50% effective concentration (EC50) was 7.67 µM.
